Experimental data: patent US6943253B2, “6-phenylpyrrolopyrimidinedione derivatives” (Almirall Prodesfarma S.A., priority 2000, dated 2005)
pIC50: −log10 of the molar value.

Target: T1, cyclic GMP specific phosphodiesterase (PDE 5) (Homo sapiens, UniProt O76074)
T1 construct: isolated from human platelet lysates by ion exchange chromatography using a Mono-Q column; from tissue; host or cells: human platelets (lysate, Mono-Q ion exchange fraction)
Assay: PDE 5 inhibitory activity, enzyme isolated from human platelet lysates
Format: biochemical
Details: PDE 5 from human platelet lysates; 0.25 mM [3H]-cyclic GMP as substrate; read-out: IC50 PDE5
Protocol: The cyclic GMP specific phosphodiesterase (PDE 5) was isolated from human platelet lysates by ion exchange chromatography using a Mono-Q column. The enzyme activity was determined using 0.25 mM [3H]-cyclic GMP as substrate. The purification of the enzyme and the assessment of the PDE 5 inhibitory activity of our compounds were performed essentially as described by R. W. Gristwood et al., Br. J. Pharmacol. 1992, 105:985-991.

CCCOc1ccc(S(=O)(=O)N2CCN(C)CC2)cc1-c1cc2c([nH]1)c(=O)n(C)c(=O)n2CCC [Example 12, 3-Methyl-6-[5-(4-methylpiperazine-1-sulphonyl)-2-propoxyphenyl]-1-propyl-1,5-dihydropyrrolo[3,2-d]pyrimidine-2,4-dione]
pIC50: 7.85

CCCOc1ccc(S(=O)(=O)N2CCN(CC)CC2)cc1-c1cc2c([nH]1)c(=O)n(C)c(=O)n2CCC [Example 13, 6-[5-(4-Ethylpiperazine-1-sulphonyl)-2-propoxyphenyl]-3-methyl-1-propyl-1,5-dihydropyrrolo[3,2-d]pyrimidine-2,4-dione]
pIC50: 8.10

CCCn1c(=O)n(C)c(=O)c2[nH]c(-c3cc(S(=O)(=O)N4CCN(C)CC4)ccc3OCC)c(Cl)c21 [Example 27, 7-Chloro-6-[2-ethoxy-5-(4-methylpiperazine-1-sulfonyl)phenyl]-3-methyl-1-propyl-1,5-dihydropyrrolo[3,2-d]pyrimidine-2,4-dione]
pIC50: 8.47

CCCOc1ccc(S(=O)(=O)N2CCN(C)CC2)cc1-c1[nH]c2c(=O)n(C)c(=O)n(CCC)c2c1Cl [Example 33, 7-Chloro-3-methyl-6-[5-(4-methylpiperazine-1-sulfonyl)-2-propoxyphenyl]-1-propyl-1,5-dihydropyrrolo[3,2-d]pyrimidine-2,4-dione]
pIC50: 8.38

CCCOc1ccc(S(=O)(=O)N2CCN(CC)CC2)cc1-c1[nH]c2c(=O)n(C)c(=O)n(CCC)c2c1Cl [Example 34, 7-Chloro-6-[5-(4-ethylpiperazine-1-sulfonyl)-2-propoxyphenyl]-3-methyl-1-propyl-1,5-dihydropyrrolo[3,2-d]pyrimidine-2,4-dione]
pIC50: 8.44

CCCOc1ccc(S(=O)(=O)N2CCN(CCO)CC2)cc1-c1[nH]c2c(=O)n(C)c(=O)n(CCC)c2c1Cl [Example 35, 7-Chloro-6-{5-[4-(2-hydroxyethyl)piperazine-1-sulfonyl]-2-propoxyphenyl}-3-methyl-1-propyl-1,5-dihydropyrrolo[3,2-d]pyrimidine-2,4-dione]
pIC50: 8.47

CCCn1c(=O)n(C)c(=O)c2[nH]c(-c3cc(S(=O)(=O)N4CCN(CCCO)CC4)ccc3OCC)c(Br)c21 [Example 47, 7-Bromo-6-{2-ethoxy-5-[4-(3-hydroxypropyl)piperazine-1-sulfonyl]phenyl}-3-methyl-1-propyl-1,5-dihydropyrrolo[3,2-d]pyrimidine-2,4-dione]
pIC50: 8.04

CCCOc1ccc(S(=O)(=O)N2CCN(C)CC2)cc1-c1[nH]c2c(=O)n(C)c(=O)n(CCC)c2c1Br [Example 50, 7-Bromo-3-methyl-6-[5-(4-methylpiperazine-1-sulfonyl)-2-propoxyphenyl]-1-propyl-1,5-dihydropyrrolo[3,2-d]pyrimidine-2,4-dione]
pIC50: 8.35

CCCOc1ccc(S(=O)(=O)N2CCN(CCO)CC2)cc1-c1[nH]c2c(=O)n(C)c(=O)n(CCC)c2c1Br [Example 55, 7-Bromo-6-{5-[4-(2-hydroxyethyl)piperazine-1-sulfonyl]-2-propoxyphenyl}-3-methyl-1-propyl-1,5-dihydropyrrolo[3,2-d]pyrimidine-2,4-dione]
pIC50: 8.18

CCCOc1ccc(S(=O)(=O)N2CCN(CCCO)CC2)cc1-c1[nH]c2c(=O)n(C)c(=O)n(CCC)c2c1Br [Example 57, 7-Bromo-6-{5-[4-(3-hydroxypropyl)piperazine-1-sulfonyl]-2-propoxyphenyl}-3-methyl-1-propyl-1,5-dihydropyrrolo[3,2-d]pyrimidine-2,4-dione]
pIC50: 8.40
